Species on record: Rattus norvegicus
Assay: Open TG-GATES - Regimen: Daily Repeat
Format: toxicity, organism-based, Sprague-Dawley
Set-up: regimen Daily Repeat, gender Male, age 6 weeks
Conditions: in vivo, po, route gavage; for APTT / Bas / Eos / Fbg / Hb / Ht / Lym / MCH / MCHC / MCV / Mono / Neu / PT / Plat / RBC / Ret / WBC: tissue Blood; for KIDNEY_L / KIDNEY_R / KIDNEY_TOTAL: tissue Kidney; for LIVER: tissue Liver; for A/G / ALP / ALT / AST / BUN / CRE / Ca / Cl / DBIL / GLC / IP / K / LDH / Na / PL / RALB / TBIL / TC / TG / TP / gamma-GTP: tissue Plasma
[1] = 300 mg/kg, 72 h, dose level Middle, time 3 day
[2] = 300 mg/kg, […], dose level Middle, time 7 day
[3] = 300 mg/kg, […], dose level Middle, time 14 day
[4] = 300 mg/kg, […], dose level Middle, time 28 day
[5] = 1000 mg/kg, 72 h, dose level High, time 3 day
[6] = 1000 mg/kg, […], dose level High, time 7 day
[7] = 1000 mg/kg, […], dose level High, time 14 day
[8] = 1000 mg/kg, […], dose level High, time 28 day

## CC(S)C(=O)NCC(=O)O (centres undefined) [TIOPRONIN]
[1]
  TERMINAL_BW: 224.5 g
  APTT: 22.4 s
  Bas: 0%
  Eos: 0.8%
  Fbg: 299 mg/dL
  Hb: 13.5 g/dL
  Ht: 40%
  Lym: 78.4%
  MCH: 21.1 pg
  MCHC: 33.6%
  MCV: 62.7 fL
  Mono: 2.4%
  Neu: 17.2%
  PT: 15.2 s
  Plat: 132 x10_4/uL
  RBC: 639.8 x10_4/ul
  Ret: 7.5%
  WBC: 96 x10_2/uL
  KIDNEY_L: 1 g
  KIDNEY_R: 1 g
  KIDNEY_TOTAL: 2 g
  LIVER: 10.7 g
  A/G: 1.2
  ALP: 1564.4 IU/L
  ALT: 42 IU/L
  AST: 75.2 IU/L
  BUN: 16 mg/dL
  CRE: 0.2 mg/dL
  Ca: 10.6 mg/dL
  Cl: 105.8 meq/L
  DBIL: 0 mg/dL
  GLC: 187.4 mg/dL
  IP: 7.3 mg/dL
  K: 4.4 meq/L
  LDH: 205.6 IU/L
  Na: 140.4 meq/L
  PL: 131.4 mg/dL
  RALB: 3 g/dL
  TBIL: 0.008 mg/dL
  TC: 73.4 mg/dL
  TG: 71.2 mg/dL
  TP: 5.5 g/dL
  gamma-GTP: 1.4 IU/L
[2]
  TERMINAL_BW: 258 g
  APTT: 22.2 s
  Bas: 0%
  Eos: 1.2%
  Fbg: 330.4 mg/dL
  Hb: 14 g/dL
  Ht: 40.4%
  Lym: 77.6%
  MCH: 21.7 pg
  MCHC: 34.9%
  MCV: 62.1 fL
  Mono: 2.4%
  Neu: 18%
  PT: 15.3 s
  Plat: 121.4 x10_4/uL
  RBC: 649.6 x10_4/ul
  Ret: 6.4%
  WBC: 101.8 x10_2/uL
  KIDNEY_L: 1.1 g
  KIDNEY_R: 1.1 g
  KIDNEY_TOTAL: 2.2 g
  LIVER: 12 g
  A/G: 1.1
  ALP: 1316.6 IU/L
  ALT: 36 IU/L
  AST: 63.4 IU/L
  BUN: 15.8 mg/dL
  CRE: 0.1 mg/dL
  Ca: 10.6 mg/dL
  Cl: 106.6 meq/L
  DBIL: 0 mg/dL
  GLC: 186.4 mg/dL
  IP: 7.3 mg/dL
  K: 4.3 meq/L
  LDH: 150.2 IU/L
  Na: 140.6 meq/L
  PL: 144.6 mg/dL
  RALB: 2.9 g/dL
  TBIL: 0 mg/dL
  TC: 70.6 mg/dL
  TG: 146.2 mg/dL
  TP: 5.5 g/dL
  gamma-GTP: 1.8 IU/L
[3]
  TERMINAL_BW: 313.9 g
  APTT: 23.7 s
  Bas: 0%
  Eos: 1%
  Fbg: 287.6 mg/dL
  Hb: 14 g/dL
  Ht: 41.2%
  Lym: 83%
  MCH: 20.3 pg
  MCHC: 33.9%
  MCV: 59.7 fL
  Mono: 2.2%
  Neu: 13.2%
  PT: 15.5 s
  Plat: 109.8 x10_4/uL
  RBC: 689.8 x10_4/ul
  Ret: 5%
  WBC: 142 x10_2/uL
  KIDNEY_L: 1.2 g
  KIDNEY_R: 1.2 g
  KIDNEY_TOTAL: 2.5 g
  LIVER: 13.9 g
  A/G: 1.3
  ALP: 1441.2 IU/L
  ALT: 43.8 IU/L
  AST: 65.8 IU/L
  BUN: 20.4 mg/dL
  CRE: 0.2 mg/dL
  Ca: 10.6 mg/dL
  Cl: 106.8 meq/L
  DBIL: 0 mg/dL
  GLC: 194.6 mg/dL
  IP: 6.5 mg/dL
  K: 4.4 meq/L
  LDH: 143.4 IU/L
  Na: 140.8 meq/L
  PL: 151.8 mg/dL
  RALB: 3.1 g/dL
  TBIL: 0.004 mg/dL
  TC: 70.8 mg/dL
  TG: 155 mg/dL
  TP: 5.6 g/dL
  gamma-GTP: 2.2 IU/L
[4]
  TERMINAL_BW: 381.6 g
  APTT: 24.6 s
  Bas: 0%
  Eos: 1%
  Fbg: 323.4 mg/dL
  Hb: 15.4 g/dL
  Ht: 43.3%
  Lym: 82.6%
  MCH: 20.1 pg
  MCHC: 35.5%
  MCV: 56.6 fL
  Mono: 2%
  Neu: 12.6%
  PT: 16.1 s
  Plat: 95.9 x10_4/uL
  RBC: 764.2 x10_4/ul
  Ret: 2.6%
  WBC: 146.8 x10_2/uL
  KIDNEY_L: 1.4 g
  KIDNEY_R: 1.4 g
  KIDNEY_TOTAL: 2.9 g
  LIVER: 16.5 g
  A/G: 1.2
  ALP: 1229.6 IU/L
  ALT: 42.6 IU/L
  AST: 64.6 IU/L
  BUN: 18.6 mg/dL
  CRE: 0.2 mg/dL
  Ca: 10.9 mg/dL
  Cl: 106 meq/L
  DBIL: 0 mg/dL
  GLC: 192.4 mg/dL
  IP: 6.5 mg/dL
  K: 4.1 meq/L
  LDH: 154.2 IU/L
  Na: 143 meq/L
  PL: 142 mg/dL
  RALB: 3.3 g/dL
  TBIL: 0.016 mg/dL
  TC: 72 mg/dL
  TG: 127.6 mg/dL
  TP: 6.1 g/dL
  gamma-GTP: 1.8 IU/L
[5]
  TERMINAL_BW: 223.7 g
  APTT: 23.7 s
  Bas: 0%
  Eos: 1.2%
  Fbg: 288 mg/dL
  Hb: 13 g/dL
  Ht: 39.2%
  Lym: 73.8%
  MCH: 20.8 pg
  MCHC: 33.2%
  MCV: 62.7 fL
  Mono: 3.6%
  Neu: 20.8%
  PT: 15.8 s
  Plat: 113.1 x10_4/uL
  RBC: 626.6 x10_4/ul
  Ret: 6.9%
  WBC: 105.8 x10_2/uL
  KIDNEY_L: 1 g
  KIDNEY_R: 1 g
  KIDNEY_TOTAL: 2 g
  LIVER: 10.7 g
  A/G: 1.3
  ALP: 1581.6 IU/L
  ALT: 49.2 IU/L
  AST: 77.2 IU/L
  BUN: 15.2 mg/dL
  CRE: 0.2 mg/dL
  Ca: 10.7 mg/dL
  Cl: 105.8 meq/L
  DBIL: 0.002 mg/dL
  GLC: 186.2 mg/dL
  IP: 7.8 mg/dL
  K: 4.4 meq/L
  LDH: 173.4 IU/L
  Na: 140.8 meq/L
  PL: 131 mg/dL
  RALB: 2.9 g/dL
  TBIL: 0.014 mg/dL
  TC: 68.6 mg/dL
  TG: 83.4 mg/dL
  TP: 5.2 g/dL
  gamma-GTP: 1.8 IU/L
[6]
  TERMINAL_BW: 254.3 g
  APTT: 21.9 s
  Bas: 0%
  Eos: 1%
  Fbg: 297 mg/dL
  Hb: 13.4 g/dL
  Ht: 39.6%
  Lym: 77%
  MCH: 21.4 pg
  MCHC: 33.8%
  MCV: 63.3 fL
  Mono: 2.6%
  Neu: 18.8%
  PT: 15.4 s
  Plat: 122.7 x10_4/uL
  RBC: 626 x10_4/ul
  Ret: 6.8%
  WBC: 115.2 x10_2/uL
  KIDNEY_L: 1.1 g
  KIDNEY_R: 1.2 g
  KIDNEY_TOTAL: 2.3 g
  LIVER: 12.3 g
  A/G: 1.2
  ALP: 1407 IU/L
  ALT: 45 IU/L
  AST: 67.8 IU/L
  BUN: 18.4 mg/dL
  CRE: 0.1 mg/dL
  Ca: 10.8 mg/dL
  Cl: 105.4 meq/L
  DBIL: 0 mg/dL
  GLC: 177.2 mg/dL
  IP: 7.9 mg/dL
  K: 4.6 meq/L
  LDH: 181.4 IU/L
  Na: 140 meq/L
  PL: 132.6 mg/dL
  RALB: 2.9 g/dL
  TBIL: 0.006 mg/dL
  TC: 67.8 mg/dL
  TG: 90.8 mg/dL
  TP: 5.2 g/dL
  gamma-GTP: 1.8 IU/L
[7]
  TERMINAL_BW: 296.9 g
  APTT: 24.7 s
  Bas: 0%
  Eos: 0.8%
  Fbg: 266.2 mg/dL
  Hb: 13.9 g/dL
  Ht: 41.1%
  Lym: 81.2%
  MCH: 20.8 pg
  MCHC: 33.7%
  MCV: 61.7 fL
  Mono: 2.4%
  Neu: 14.4%
  PT: 15.9 s
  Plat: 124 x10_4/uL
  RBC: 666.8 x10_4/ul
  Ret: 5.2%
  WBC: 129.5 x10_2/uL
  KIDNEY_L: 1.3 g
  KIDNEY_R: 1.3 g
  KIDNEY_TOTAL: 2.6 g
  LIVER: 13.3 g
  A/G: 1.3
  ALP: 1175.6 IU/L
  ALT: 41.6 IU/L
  AST: 70.4 IU/L
  BUN: 23 mg/dL
  CRE: 0.2 mg/dL
  Ca: 10.5 mg/dL
  Cl: 105 meq/L
  DBIL: 0 mg/dL
  GLC: 182.6 mg/dL
  IP: 7 mg/dL
  K: 4.4 meq/L
  LDH: 182.6 IU/L
  Na: 140.2 meq/L
  PL: 125.4 mg/dL
  RALB: 3.1 g/dL
  TBIL: 0.01 mg/dL
  TC: 60 mg/dL
  TG: 120.2 mg/dL
  TP: 5.6 g/dL
  gamma-GTP: 2 IU/L
[8]
  TERMINAL_BW: 364.7 g
  APTT: 24.2 s
  Bas: 0%
  Eos: 1.2%
  Fbg: 300.8 mg/dL
  Hb: 15 g/dL
  Ht: 42.6%
  Lym: 79%
  MCH: 19.2 pg
  MCHC: 35.3%
  MCV: 54.5 fL
  Mono: 1.8%
  Neu: 16.2%
  PT: 16.1 s
  Plat: 98.3 x10_4/uL
  RBC: 781.4 x10_4/ul
  Ret: 3.1%
  WBC: 124 x10_2/uL
  KIDNEY_L: 1.5 g
  KIDNEY_R: 1.5 g
  KIDNEY_TOTAL: 3 g
  LIVER: 15.3 g
  A/G: 1.2
  ALP: 1066 IU/L
  ALT: 49.2 IU/L
  AST: 71.4 IU/L
  BUN: 17 mg/dL
  CRE: 0.2 mg/dL
  Ca: 10.9 mg/dL
  Cl: 104.2 meq/L
  DBIL: 0 mg/dL
  GLC: 180 mg/dL
  IP: 7.5 mg/dL
  K: 4 meq/L
  LDH: 154.6 IU/L
  Na: 142.6 meq/L
  PL: 135 mg/dL
  RALB: 3.2 g/dL
  TBIL: 0.03 mg/dL
  TC: 63 mg/dL
  TG: 106.2 mg/dL
  TP: 5.8 g/dL
  gamma-GTP: 2 IU/L
